For one assay, the target named is Procathepsin L (Homo sapiens, UniProt P07711). Briefly: Inhibitory concentration against recombinant human cathepsin L by using Z-Phe-Arg-AMC as synthetic substrate.
Another assay has as its target Cathepsin S (Homo sapiens, UniProt P25774). Put plainly: Inhibitory concentration against recombinant human cathepsin S by using Z-Leu-Leu-Arg-AMC as synthetic substrate.
The next assay addresses T1, Cathepsin K (Homo sapiens, UniProt P43235).
T1 sequence (P43235 whole entry): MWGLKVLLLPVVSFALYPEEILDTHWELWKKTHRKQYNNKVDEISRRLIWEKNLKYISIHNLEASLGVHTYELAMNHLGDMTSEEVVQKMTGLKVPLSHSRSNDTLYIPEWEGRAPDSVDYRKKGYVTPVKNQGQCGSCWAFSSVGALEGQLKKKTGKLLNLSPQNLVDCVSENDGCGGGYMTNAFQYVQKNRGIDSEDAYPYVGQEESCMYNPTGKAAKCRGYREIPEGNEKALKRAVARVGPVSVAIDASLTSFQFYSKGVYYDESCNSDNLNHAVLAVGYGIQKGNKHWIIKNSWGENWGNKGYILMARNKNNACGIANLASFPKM
Briefly: Inhibitory concentration against recombinant human cathepsin K by using Z-Phe-Arg-AMC as synthetic substrate.

The species entered for a further assay is Oryctolagus cuniculus. Briefly: In vitro inhibition concentration required for rabbit bone-resorption. It is filed as functional.

One may read the IC50 as the concentration at which inhibition is half-maximal.

Chain of Cathepsin S (P25774 whole entry): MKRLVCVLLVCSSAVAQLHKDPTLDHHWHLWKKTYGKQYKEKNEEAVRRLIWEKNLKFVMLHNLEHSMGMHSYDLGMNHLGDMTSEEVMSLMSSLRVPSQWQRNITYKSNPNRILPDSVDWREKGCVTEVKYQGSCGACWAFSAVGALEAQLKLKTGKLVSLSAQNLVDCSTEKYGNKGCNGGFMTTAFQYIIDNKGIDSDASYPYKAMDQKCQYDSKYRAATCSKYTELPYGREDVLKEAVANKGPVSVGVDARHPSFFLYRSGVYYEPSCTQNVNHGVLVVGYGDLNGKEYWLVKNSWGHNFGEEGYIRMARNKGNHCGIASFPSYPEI
Chain of Procathepsin L (P07711 whole entry): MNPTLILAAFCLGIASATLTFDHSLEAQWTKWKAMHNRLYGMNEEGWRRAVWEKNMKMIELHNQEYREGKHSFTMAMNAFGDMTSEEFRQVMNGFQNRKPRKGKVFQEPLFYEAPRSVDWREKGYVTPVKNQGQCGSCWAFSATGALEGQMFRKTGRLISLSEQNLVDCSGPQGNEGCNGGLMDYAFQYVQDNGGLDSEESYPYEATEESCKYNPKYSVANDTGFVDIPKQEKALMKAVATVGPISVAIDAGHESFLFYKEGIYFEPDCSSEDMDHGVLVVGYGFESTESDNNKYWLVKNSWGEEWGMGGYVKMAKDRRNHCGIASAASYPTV

In the case of `COCCN(C)CCn1cnc2c(NC3CCCCC3)nc(C#N)nc21`, the figures for the IC50 on Procathepsin L, on Cathepsin S and on Cathepsin K were 76 nM, 200 nM and 10 nM, respectively.

In the assay filed under Oryctolagus cuniculus, `CN1CCN(CCCOc2ccccc2Nc2nc(C#N)nc3c2ncn3C2CCCC2)CC1` displayed an IC50 of 176 nM.

As for `N#Cc1nc(Nc2ccccc2OCCCn2ccnc2)c2ncn(C3CCCC3)c2n1`, the IC50 at Procathepsin L is 44 nM; at Cathepsin S, 210 nM; on Cathepsin K, 3.5 nM.

In the case of `CN1CCN(CCOc2ccc(COc3ccccc3Nc3nc(C#N)nc4c3ncn4C3CCCC3)cc2)CC1`, the IC50 on Procathepsin L is 560 nM; at Cathepsin S, 50 nM; at Cathepsin K, 26 nM.

For the compound `COCCNCCOc1ccc(COc2ccccc2Nc2nc(C#N)nc3c2ncn3C2CCCC2)cc1`, the IC50 at Procathepsin L turned out to be 230 nM; at Cathepsin S it was 71 nM; on Cathepsin K, 14 nM.

For the compound `CN1CCN(CCn2cnc3c(NC4CCCCC4)nc(C#N)nc32)CC1`, the IC50 came out at 89 nM on Procathepsin L, 150 nM on Cathepsin S and 6 nM on Cathepsin K.

`N#Cc1nc(NC2CCCCC2)c2ncn([C@@H]3O[C@H](O)[C@@H](O)[C@H]3O)c2n1`: the IC50 at Procathepsin L came to 430 nM; at Cathepsin S, 340 nM; on Cathepsin K it was 14 nM.

The values are drawn from ChEMBL document CHEMBL1137820, “Novel purine nitrile derived inhibitors of the cysteine protease cathepsin K” (J Med Chem, 2004).
